Laboratory results: article PMC11232401, “Characterization of antimalarial activity of artemisinin-based hybrid drugs” (Antimicrobial Agents and Chemotherapy, 2024)

Legend:
[1] = elimination half-life; cited from earlier work
P. falciparum = assay: Parasite growth inhibition (cell potency); format: cell-based; conditions: Plasmodium falciparum; strain and exposure not stated at the place
[2] = design: method as in PMID 15124211; conditions: cited from earlier work
[3] = Quantification of hybrid 1 in uRBC-derived supernatants by HPLC and fluorescence; format: in vitro ADME, human
Procedure: Each well of 96-well plates was filled with 125 µL drug (1000 nM) and 125 µL uninfected red blood cells (uRBC), which were mixed to obtain a final drug concentration of 500 nM and 2.5% or 1.0% hematocrit. The plates were incubated at 37°C in the standard gas mixture. After each time point (10 min, 6 h, and 24 h), supernatants were carefully harvested and stored at −80°C until use. Untreated uRBC incubated at the same times were used as negative controls, and DHA and AQ were employed as standard drugs. Next, supernatants were diluted in a complete medium in six different dilutions and were aliquoted in new plates. The antimalarial activity of these supernatants and freshly dissolved drugs was determined in an asynchronous parasite culture of P. falciparum (3D7, D10, and W2 strains) for 72 h using the same method described above, and parasite viability was assessed by the pLDH ([38]) and SYBR Green I ([41]) methods. […] Decay in drug concentration was estimated by using the normalized slope values calculated from linear regression fits using the slope values of a standard curve as reference. […]
To test the association between the antimalarial activity of hybrid 1 supernatants and chemical stability, the concentration of hybrid 1 in these supernatants was quantified by high-performance liquid chromatography (HPLC) and fluorescence in a microplate reader. The concentration of hybrid 1 remained constant under incubation with PBS over the analyzed time (Fig. 3E; Fig. S1). […] Moreover, we defined the slopes calculated from linear regression fits to accurately reflect the effective decay in drug concentration because peroxides could covalently bind to proteins present in the supernatant. […]
Figure S1: Quantification of hybrid LH70 (1) by fluorescence and HPLC in the uRBC-derived supernatants. […] The drug was quantified in the supernatant of the cell culture after the second and third steps of medium replacement and washing out. […] RFU = relative fluorescence units.

Compound	half-life (t1/2) [1]	IC50 (P. falciparum)	plasma peak of DHA in patients [2]	concentration of hybrid 1 in supernatant at 24 h ([3]; uRBC hematocrit 2.5%, start 500 nM, HPLC)	Maximum rate of reduction of drug concentration between 10 min and 24 h, HPLC ([3]; uRBC supernatants, slopes of linear regression fits, HPLC)	Maximum rate of reduction of drug concentration between 10 min and 24 h, fluorescence microplate reader ([3]; uRBC supernatants, slopes of linear regression fits, fluorescence)
C[C@H]1[C@@H](O)O[C@@H]2O[C@@]3(C)CC[C@H]4[C@H](C)CC[C@@H]1[C@@]24OO3 [DHA, dihydroartemisinin, reference compound]	1 to 3 h	5 nM	700 nM	–	–	–
COCCOCCOCCOCCn1c(-c2ccc(-n3cc(-c4ccc(OC5OC6OC7(C)CCC8C(C)CCC(C5C)C68OO7)cc4)nn3)cc2)nc2ccccc21 (stereo not drawn) [Hybrid 1]	–	–	–	256 nM	56.4%	65.4%
